Assay results from patent US11261170B2, “Aromatic compound, pharmaceutical composition and use thereof” (Sichuan Kelun-Biotech Biopharmaceutical Co., Ltd., priority 2017, dated 2022).

Assays:
[1] = Cytotoxicity test on HEK293 cells (CellTiter Glo); type: cell-based; conditions: human, incubated for 3 days
Method: (§1) Test Example 4: Cytotoxicity Test of Compound on HepG2 & Hek293 Cells
(§2) Cells: human hepatocyte HepG2, purchased from ATCC; Human embryonic kidney cells HEK293: purchased from ATCC;
(§3) Assay reagent: CellTiter Glo® Luminescent Cell Viability Assay, purchased from Promega.
(§4) HepG2 and HEK293 cells were incubated in DMEM/F12 medium containing 10% of fetal bovine serum respectively. A proper amount of cells were plated into a 96-well plate, the plate was placed in an incubator overnight, and the culture medium was removed, and replaced with a complete culture medium containing the compound of the application, and incubated for 3 days. On day 4, an assay reagent CellTiter Glo was added to each well, and the relative luminous unit (RLU) of each well was determined by chemiluminescence. CC50 values of the compound of the application to HepG2 and HEK293 cells were calculated by GraphPad software, and the results were shown in Table 3.

PPARα = PPARα (Homo sapiens (Human), UniProt Q07869); assay: Activation of transient transfected PPAR α in HEK293 cells (GAL4-hPPAR α luciferase assay); type: cell-based; conditions: HEK293 transfected with GAL4-hPPAR α, 24 h incubation
Sequence of PPARα (Q07869 whole entry, looked up, the tested form may be a part): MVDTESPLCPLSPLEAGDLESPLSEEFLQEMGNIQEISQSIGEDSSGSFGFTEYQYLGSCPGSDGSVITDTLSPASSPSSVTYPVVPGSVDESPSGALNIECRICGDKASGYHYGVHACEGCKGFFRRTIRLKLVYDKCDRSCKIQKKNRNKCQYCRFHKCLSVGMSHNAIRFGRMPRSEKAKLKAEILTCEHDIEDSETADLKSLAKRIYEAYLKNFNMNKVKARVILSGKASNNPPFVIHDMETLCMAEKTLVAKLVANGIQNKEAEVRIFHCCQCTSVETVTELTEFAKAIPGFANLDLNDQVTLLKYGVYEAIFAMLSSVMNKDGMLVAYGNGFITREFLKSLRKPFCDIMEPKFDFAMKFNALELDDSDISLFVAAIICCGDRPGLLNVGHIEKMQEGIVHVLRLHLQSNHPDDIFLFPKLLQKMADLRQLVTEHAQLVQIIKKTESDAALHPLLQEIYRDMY
Method: Test example 1: Experiment of the compounds on activation of transient transfected PPAR α in HEK293 cells
Plasmid: pcDNA3.1(+)-GAL4-hPPAR α, customized by Nanjing Kebai Biotechnology Co., Ltd.
(§5) Liposome: PGL4.35, customized by Nanjing Kebai Biotechnology Co., Ltd.
(§6) Cell: human embryonic kidney cells HEK293, purchased from ATCC.
(§7) Transfection reagent: Lipofectamine Reagent 3000 purchased from Invitrogen.
(§8) Assay kit: Bright Glo™ Luciferase Assay System purchased from Promega.
(§9) HEK293 cells were incubated in DMEM medium containing 10% of fetal bovine serum at 37° C. in the presence of 5% of CO2. 3×10^5/ml cells were plated in each well of the 6-well plate. When the cell convergence degree reached 50%-80%, 5 μg of liposome PGL4.35 and 5 μg of expression plasmid pcDNA3.1(+)-GAL4-hPPAR α were added to transfect the cells for 24 h and then the cells were collected. The transfected cells were plated in the 96-well plate and the compounds of the application in different concentrations were added, incubated for 24 h, and Bright Glo™ Luciferase Assay System reagent was added for luciferase assay.

[2] = Cytotoxicity test on HepG2 cells (CellTiter Glo); type: cell-based; conditions: human, incubated for 3 days
Method: as §1, §2, §3, §4

[3] = target: hERG potassium ion channel (Homo sapiens (Human), UniProt Q12809); assay: Predictor hERG fluorescence polarization; type: binding
Sequence of hERG potassium ion channel (Q12809 whole entry): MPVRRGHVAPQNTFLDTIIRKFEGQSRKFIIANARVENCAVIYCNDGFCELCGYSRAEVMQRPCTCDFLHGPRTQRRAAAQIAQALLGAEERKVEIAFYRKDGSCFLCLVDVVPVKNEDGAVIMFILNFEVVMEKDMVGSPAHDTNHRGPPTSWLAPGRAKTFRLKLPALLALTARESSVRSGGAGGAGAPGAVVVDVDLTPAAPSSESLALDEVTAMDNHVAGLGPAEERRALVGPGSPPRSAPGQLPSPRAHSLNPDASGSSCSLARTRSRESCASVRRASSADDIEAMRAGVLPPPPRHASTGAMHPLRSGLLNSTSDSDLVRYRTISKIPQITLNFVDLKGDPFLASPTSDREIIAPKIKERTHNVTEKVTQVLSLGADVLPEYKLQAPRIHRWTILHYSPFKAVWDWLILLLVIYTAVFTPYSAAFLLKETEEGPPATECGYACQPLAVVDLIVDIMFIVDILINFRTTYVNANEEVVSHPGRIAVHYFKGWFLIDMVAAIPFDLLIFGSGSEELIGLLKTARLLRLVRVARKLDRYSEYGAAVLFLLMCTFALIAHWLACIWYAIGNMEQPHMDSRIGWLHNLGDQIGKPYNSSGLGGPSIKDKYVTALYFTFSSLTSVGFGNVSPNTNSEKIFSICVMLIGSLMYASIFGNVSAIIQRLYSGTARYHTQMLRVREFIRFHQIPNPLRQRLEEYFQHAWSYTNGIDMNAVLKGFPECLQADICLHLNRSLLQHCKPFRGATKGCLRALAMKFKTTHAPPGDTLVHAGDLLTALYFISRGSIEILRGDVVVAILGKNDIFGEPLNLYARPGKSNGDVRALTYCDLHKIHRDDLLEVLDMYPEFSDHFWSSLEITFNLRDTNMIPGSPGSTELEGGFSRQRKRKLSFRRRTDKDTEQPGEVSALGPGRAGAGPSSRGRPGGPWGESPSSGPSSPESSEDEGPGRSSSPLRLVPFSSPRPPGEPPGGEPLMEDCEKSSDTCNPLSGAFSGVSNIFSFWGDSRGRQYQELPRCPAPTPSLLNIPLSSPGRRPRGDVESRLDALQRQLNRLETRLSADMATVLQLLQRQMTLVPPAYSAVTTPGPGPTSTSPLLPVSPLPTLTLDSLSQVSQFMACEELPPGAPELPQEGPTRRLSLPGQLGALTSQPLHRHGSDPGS
Method: Test Example 5: In Vitro Safety Test
The effect of the compound on hERG potassium ion channel was tested by Predictor™ hERG fluorescence polarization.

PPARδ = PPARδ (Homo sapiens (Human), UniProt Q03181); assay: Activation of transient transfected PPAR δ in HEK293 cells (GAL4-hPPAR δ luciferase assay); type: cell-based; conditions: HEK293 transfected with GAL4-hPPAR δ, 24 h incubation
Sequence of PPARδ (Q03181 whole entry, looked up, the tested form may be a part): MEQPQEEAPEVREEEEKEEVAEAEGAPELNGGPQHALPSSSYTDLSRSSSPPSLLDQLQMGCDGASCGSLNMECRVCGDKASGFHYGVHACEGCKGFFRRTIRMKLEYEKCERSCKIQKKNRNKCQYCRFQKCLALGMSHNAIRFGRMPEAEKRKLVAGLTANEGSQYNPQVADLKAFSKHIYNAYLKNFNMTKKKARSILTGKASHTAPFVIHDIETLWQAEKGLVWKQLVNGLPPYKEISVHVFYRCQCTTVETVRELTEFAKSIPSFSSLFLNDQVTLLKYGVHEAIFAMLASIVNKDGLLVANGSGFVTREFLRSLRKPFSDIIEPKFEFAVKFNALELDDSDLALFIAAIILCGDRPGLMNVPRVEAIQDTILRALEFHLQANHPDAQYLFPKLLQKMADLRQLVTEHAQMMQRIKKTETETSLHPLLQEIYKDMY
Method: Test Example 2: Experiment of the Compounds on Activation of Transient Transfected PPAR δ in HEK293 Cells
Plasmid: pcDNA3.1(+)-GAL4-hPPAR δ, customized by Nanjing Kebai Biotechnology Co., Ltd.
as §5, §6, §7, §8
as §9, with “δ” for “α”, “Then, the” for “The”, “reagent” for “reagent was added”, “assay was added.” for “assay.”

[4] = test system: MCD model of non-alcoholic steatohepatitis; assay: In vivo efficacy study in the MCD model of non-alcoholic steatohepatitis; parameters: species or system C57 Mice; conditions: MCD diet mice
Method: Test Example 6: In Vivo Efficacy Study of Compound in the MCD Model of Non-Alcoholic Steatohepatitis In this example, comparative test between compound GFT505 from WO2018133705A1 and compounds of the invention was conducted, so as to show the advantages of compounds of the invention. C57 Mice at 8-10 weeks of age (purchased from Vital River Laboratories) were body-weight matched and randomly divided into groups of normal, model, control and test. Mice in normal group were fed with standard chow for 9 weeks. Mice in model group, control group and test group were fed with MCD diet (Methionine-Choline Deficient Diet, Research Diets) for 9 weeks to induce NASH Model. During weeks 5-9 of the 9-week course of MCD diet, the control group and the test group were treated with GFT505 and TM4 of the invention, respectively, and the normal group and model group were treated with 0.5% MC. The dosage regimen was specified in table 5. [table] Animals were dissected after administration on day 35, livers were collected for H&E staining (hematoxylin-eosin staining) and sirius red staining. And then NAFLD activity score, including liver steatosis score, inflammation score and ballooning score, and liver fibrosis score were conducted.

[5] = 1 mg/kg intragastric once every day for 35 days
[6] = 1 mg/kg, 35 days, result in words

| SMILES | CC50 at 3 days [1] [nM] | EC50 (PPARα) [nM] | CC50 at 3 days [2] [nM] | IC50 [3] [nM] | EC50 (PPARδ) [nM] | other results |
| --- | --- | --- | --- | --- | --- | --- |
| Cc1cc(/C=C/C(=O)c2cc3ccccc3s2)cc(C)c1OC(C)(C)C(=O)O [Example 2, (E)-2-(4-(3-(benzo [b]thien-2-yl)-3-oxo-1-propen-1-yl)-2,6-dimethylphenoxy)-2-methylpropionic acid] | ~8140 | 1210 | ~7270 | 8240 | 6130 | – |
| COc1ccc2nc(Cl)c(C(=O)/C=C/c3cc(C)c(OC(C)(C)C(=O)O)c(C)c3)cc2c1 [Example 20, (E)-2-(4-(3-(2-chloro-6-methoxy-quinolin-3-yl)-3-oxo-1-propen-1-yl)-2,6-dimethylphenoxy)-2-methylpropionic acid] | – | 460 | – | – | – | – |
| Cc1cc(/C=C/C(=O)c2cc3ccccc3nc2N2CCCC2)cc(C)c1OC(C)(C)C(=O)O [Example 10, (E)-2-(4-(3-(2-(1-pyrrolidinyl)quinolin-3-yl)-3-oxo-1-propen-1-yl)-2,6-dimethylphenoxy)-2-methylpropionic acid] | – | 77 | – | > 10000 | 2510 | – |
| Cc1cc(/C=C/C(=O)c2cc3ccccc3nc2N2CCOCC2)cc(C)c1OC(C)(C)C(=O)O [Example 11, (E)-2-(4-(3-(2-(morpholin-4-yl)quinolin-3-yl)-3-oxo-1-propen-1-yl)-2,6-dimethylphenoxy)-2-methylpropionic acid] | – | 585 | – | – | 4430 | – |
| CSc1ccc(C(=O)/C=C/c2cc(C)c(OC(C)(C)C(=O)O)c(C)c2)cc1 [GFT505, reference compound] | – | – | – | – | – | Liver fibrosis score (Mean ± SD) [4, 5]: 1.22 ± 0.44; NAFLD activity score (Mean ± SD) [4, 5]: 3.33 ± 0.87; Reduction of NAFLD activity score compared with model group [4, 6]: not statistically significant; Reduction of liver fibrosis score compared with model group [4, 6]: not statistically significant |
| Cc1cc(/C=C/C(=O)c2cnc3ccccc3c2)cc(C)c1OC(C)(C)C(=O)O [Example 3, (E)-2-(4-(3-(quinolin-3-yl)-3-oxo-1-propen-1-yl)-2,6-dimethylphenoxy)-2-methylpropionic acid] | – | 1930 | – | > 10000 | – | – |
| Cc1cc(/C=C/C(=O)c2cc3ccccc3nc2C)cc(C)c1OC(C)(C)C(=O)O [Example 7, (E)-2-(4-(3-(2-methylquinolin-3-yl)-3-oxo-1-propen-1-yl)-2,6-dimethylphenoxy)-2-methylpropionic acid] | > 10000 | 752 | > 10000 | – | – | – |
| COc1ccc2cc(C(=O)/C=C/c3cc(C)c(OC(C)(C)C(=O)O)c(C)c3)c(Cl)nc2c1 [Example 18, (E)-2-(4-(3-(2-chloro-7-methoxy-quinolin-3-yl)-3-oxo-1-propen-1-yl)-2,6-dimethylphenoxy)-2-methylpropionic acid] | – | 8.62 | – | > 10000 | 810 | – |
| COc1ccc2nc(OC)c(C(=O)/C=C/c3cc(C)c(OC(C)(C)C(=O)O)c(C)c3)cc2c1 [Example 21, (E)-2-(4-(3-(2,6-dimethoxy-quinolin-3-yl)-3-oxo-1-propen-1-yl)-2,6-dimethylphenoxy)-2-methylpropionic acid] | – | 5.4 | – | > 10000 | 675 | – |
| CSc1nc2ccccc2cc1C(=O)/C=C/c1cc(C)c(OC(C)(C)C(=O)O)c(C)c1 [Example 17, (E)-2-(4-(3-(2-methylthioquinolin-3-yl)-3-oxo-1-propen-1-yl)-2,6-dimethylphenoxy)-2-methylpropionic acid] | – | 123 | – | > 10000 | – | – |
| Cc1cc(/C=C/C(=O)c2cc3ccccc3nc2Cl)cc(C)c1OC(C)(C)C(=O)O [Example 4, (E)-2-(4-(3-(2-chloroquinolin-3-yl)-3-oxo-1-propen-1-yl)-2,6-dimethylphenoxy)-2-methyl propionic acid] | 13600 | 278 | 11300 | > 10000 | 3440 | – |
| COCCOc1nc2ccccc2cc1C(=O)/C=C/c1cc(C)c(OC(C)(C)C(=O)O)c(C)c1 [Example 6, (E)-2-(4-(3-(2-(2-methoxyethoxy)quinolin-3-yl)-3-oxo-1-propen-1-yl)-2,6-dimethylphenoxy)-2-methylpropionic acid] | > 10000 | 52.8 | > 10000 | > 10000 | 374 | – |
| Cc1cc(/C=C/C(=O)c2cc3ccccc3nc2C(F)(F)F)cc(C)c1OC(C)(C)C(=O)O [Example 8, (E)-2-(4-(3-(2-trifluoromethylquinolin-3-yl)-3-oxo-1-propen-1-yl)-2,6-dimethylphenoxy)-2-methylpropionic acid] | > 10000 | 692 | > 10000 | > 10000 | – | – |
| Cc1cc(/C=C/C(=O)c2cc3ccccc3nc2N(C)C)cc(C)c1OC(C)(C)C(=O)O [Example 9, (E)-2-(4-(3-(2-dimethylaminoquinolin-3-yl)-3-oxo-1-propen-1-yl)-2,6-dimethylphenoxy)-2-methylpropionic acid] | – | – | – | > 10000 | – | – |
| COc1ccc2cc(C(=O)/C=C/c3cc(C)c(OC(C)(C)C(=O)O)c(C)c3)c(OC)nc2c1 [Example 19, (E)-2-(4-(3-(2,7-dimethoxy-quinolin-3-yl)-3-oxo-1-propen-1-yl)-2,6-dimethylphenoxy)-2-methylpropionic acid] | – | 1.33 | – | > 10000 | 796 | – |
